Assay results from patent publication US4272541A, “7,8 and 7-8 Substituted 4,5α-epoxymorphinan-6-one compounds, and methods of treating pain and drug dependence with them” (Miles Laboratories, Inc., priority 1979, dated 1981).

Tested on: Anti-Peristaltic Effects Of Morphine
Assay: Charcoal meal test, antagonist test (ability to antagonize the anti-peristaltic effects of morphine)
Assay type: in vivo, mice (albino females, CFW strain)
Conditions: morphine 8 mg/kg, naloxone 10 mg/kg = 100%
Procedure: The agonist and antagonist effects of TR-5088, reference compound TR-5128 and prior art compound 17-cyclopropylmethyl-4,5α-epoxy-3-hydroxymorphinan-6-one (TR-5118) were determined in mice by a modified procedure of Rodriguez and Villarreal (report on the 36th Annual Scientific Meeting Committee on the Problems of Drug Dependance, Mar. 10-14, 1974, Mexico City, D.F.).
Subjects and Procedure for Measuring Gastrointestinal Peristaltic Activity. The mice used were albino females of the CFW strain, weighing between 20 and 25 grams; ten animals per dose were used for each compound tested in each experiment except 20 animals were used in the tests of Compound 5088. Gastrointestinal peristaltic activity was measured using a modification of the charcoal meal method described by Macht and Baba-Gose (1931). Mice were deprived of food 18 hours before the administration of the charcoal meal. […] This meal consisted of an aqueous suspension of 5% powdered tragacanth and 5% animal charcoal and was freshly made for each experiment. The charcoal meal was administered by gastric intubation, 0.25 ml per mouse. The animals were sacrificed by cervical dislocation. After the sacrifice, the whole gastrointestinal tract was rapidly removed and freed of epiploon. Then the entire length of intestine was hung upon a small hook at the level of the pylorus. In order to standardize the tension of the intestine, a 5 g weight was hung at the level of the ileocecal valve. Gastrointestinal peristaltic activity was then determined by measuring the distance the charcoal traveled from the pylorus.
Drugs. Morphine hydrochloride, naloxone hydrochloride or test compounds were each dissolved in distilled water with their concentrations adjusted so that the volume of injection was 10 ml/kg. Doses are expressed in terms of the salts.
Determination of Ability of Test Compounds to Antagonize the Anti-Peristaltic Effects of Morphine (Antagonist test).
Morphine (8 mg/kg) was given s.c. at time 0, charcoal meal was given p.o. at time 15 min, naloxone or test compound was given s.c. at 30 min, and the animals were sacrificed at time 45 min. Naloxone is the standard of reference and its maximum effect (at 10 mg/kg) to antagonize the antiperistaltic effects of morphine is assigned the value of 100%; test compounds are expressed as % of maximum naloxone antagonism.

SMILES: C=CCN1CC[C@]23c4c5ccc(O)c4O[C@H]2C(=O)CC[C@@]3(O)[C@H]1C5 [Naloxone]
- Percent Reversal (S.E.) Of Anti-Peristaltic Effects Of Morphine (0.01 mg/kg s.c.): 14.5(±3.0) %
- Percent Reversal (S.E.) Of Anti-Peristaltic Effects Of Morphine (0.10 mg/kg s.c.): 39.1(±4.2) %
- Percent Reversal (S.E.) Of Anti-Peristaltic Effects Of Morphine (1.0 mg/kg s.c.): 69.8(±8.0) %
- Percent Reversal (S.E.) Of Anti-Peristaltic Effects Of Morphine (10.0 mg/kg s.c.): 100.0(±5.9) %
